Peptide text beside a SMILES is read from it.
Target: T1, Soluble mouse EPOR chimera proteins (erythropoietin receptor) (Mus musculus, UniProt P14753)
T1 construct: Soluble mouse EPOR chimera proteins; purchased R&D Systems
T1 sequence (P14753 25-249 limits assumed): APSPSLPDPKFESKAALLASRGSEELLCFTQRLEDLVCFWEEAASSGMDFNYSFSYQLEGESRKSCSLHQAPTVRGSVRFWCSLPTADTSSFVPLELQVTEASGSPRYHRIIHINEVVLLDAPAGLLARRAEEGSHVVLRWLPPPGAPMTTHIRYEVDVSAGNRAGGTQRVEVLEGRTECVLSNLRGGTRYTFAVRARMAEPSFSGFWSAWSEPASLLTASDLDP
Test: Surface plasmon resonance (SPR) binding affinity to erythropoietin receptor
Conditions: for Ka: association rate
Description: The SPR technique is to measure interactions between biomolecules in real-time by using an optical principle without specific labeling, and is a system analyzing affinity between two molecules and kinetics, i.e., an association rate (Ka) and a dissociation rate (Kd). In detail, real-time SPR analysis may be performed using Reichert SPR Biosensor SR […] instrument (Reichert Inc., NY, USA). Soluble mouse EPOR chimera proteins (R&D Systems, Minneapolis, Minn., USA) were covalently linked to a carboxymethylated dextran matrix-coated chip (BR-1005-39, Pharmacia Biosensor AB) by an amine coupling procedure using an amine coupling kit (BR-1000-50, GE Healthcare, USA) in accordance with manufacturer's instructions. Each 5 pM, 2.5 pM, and 1.25 pM of the peptide samples of the present disclosure and scrambled peptides were applied at a flow rate of 5 μl/minute, and the experiments were independently performed in duplicate. For signal normalization, DMSO was applied at a flow rate of 5 μl/minute. After each binding cycle, the sensor chip was regenerated by injecting 25 mM of acetic acid at a flow rate of 20 μl/minute.

Row | Ka (Table 8) | dissociation rate constant (koff) (Table 8) | Ka (Table 9) | dissociation rate constant (koff) (Table 9) | Kd (Table 8) | Structure (SMILES)
1 | 5.55 × 10^3 | 5.9 × 10^−3 |  |  |  | CSCC[C@H](NC(=O)[C@@H](NC(=O)[C@H](Cc1c[nH]cn1)NC(=O)[C@H](CO)NC(=O)[C@H](CC(C)C)NC(=O)[C@H](CC(C)C)NC(=O)CNC(=O)[C@H](CO)NC(=O)[C@@H](NC(=O)[C@H](CCCNC(=N)N)NC(=O)[C@H](CCCCN)NC(=O)[C@H](CC(C)C)NC(=O)[C@@H](NC(=O)[C@H](Cc1c[nH]cn1)NC(=O)[C@H](CC(C)C)NC(=O)[C@H](CCC(N)=O)NC(=O)[C@@H](N)CC(C)C)C(C)C)C(C)C)[C@@H](C)O)C(=O)N[C@@H](CC(C)C)C(=O)N[C@@H](CC(C)C)C(=O)N[C@@H](CCCCN)C(=O)N[C@@H](C)C(=O)N[C@@H](CC(C)C)C(=O)NCC(=O)O [ML1-1] (H-LQLHVLKRVSGLLSHTMLLKALG-OH; N-terminus and C-terminus assumed)
2 |  |  | 1745.7 | 0.2617 |  | CC(C)C[C@H](NC(=O)CNC(=O)[C@H](CO)NC(=O)[C@@H](NC(=O)[C@H](C)NC(=O)[C@H](CCCCN)NC(=O)[C@H](CC(=O)O)NC(=O)[C@@H](NC(=O)[C@H](CCC(=O)O)NC(=O)[C@H](CC(C)C)NC(=O)[C@H](CC(=O)O)NC(=O)[C@@H](N)CC(C)C)C(C)C)C(C)C)C(=O)N[C@@H](CCCNC(=N)N)C(=O)N[C@@H](CO)C(=O)N[C@@H](CC(C)C)C(=O)N[C@H](C(=O)N[C@H](C(=O)N[C@@H](CC(C)C)C(=O)N[C@@H](CC(C)C)C(=O)N[C@@H](CCCNC(=N)N)C(=O)N[C@@H](C)C(=O)N[C@@H](CC(C)C)C(=O)NCC(=O)O)[C@@H](C)O)[C@@H](C)O [ML1-C1] (H-LDLEVDKAVSGLRSLTTLLRALG-OH; N-terminus and C-terminus assumed)
3 |  |  | 1.59E+03 | 0.01876 |  | CC(C)C[C@H](NC(=O)CNC(=O)[C@H](CO)NC(=O)[C@@H](NC(=O)[C@H](CCCNC(=N)N)NC(=O)[C@H](CCCCN)NC(=O)[C@H](CC(=O)O)NC(=O)[C@@H](NC(=O)[C@H](Cc1c[nH]cn1)NC(=O)[C@H](CCCNC(=N)N)NC(=O)[C@H](CCC(N)=O)NC(=O)[C@@H](N)CC(C)C)C(C)C)C(C)C)C(=O)N[C@@H](CCCNC(=N)N)C(=O)N[C@@H](CO)C(=O)N[C@@H](CC(C)C)C(=O)N[C@H](C(=O)N[C@H](C(=O)N[C@@H](CC(C)C)C(=O)N[C@@H](CC(C)C)C(=O)N[C@@H](CCCNC(=N)N)C(=O)N[C@@H](C)C(=O)N[C@@H](CC(C)C)C(=O)NCC(=O)O)[C@@H](C)O)[C@@H](C)O [ML1-C2] (H-LQRHVDKRVSGLRSLTTLLRALG-OH; N-terminus and C-terminus assumed)
4 |  |  | 1104.9 | 0.01086 |  | CC(C)C[C@H](NC(=O)CNC(=O)[C@H](CCCCN)NC(=O)[C@@H](NC(=O)[C@H](CCCNC(=N)N)NC(=O)[C@H](CCCCN)NC(=O)[C@H](CCCCN)NC(=O)[C@@H](NC(=O)[C@H](Cc1c[nH]cn1)NC(=O)[C@H](CCCNC(=N)N)NC(=O)[C@H](CCC(N)=O)NC(=O)[C@@H](N)CC(C)C)C(C)C)C(C)C)C(=O)N[C@@H](CCCCN)C(=O)N[C@@H](CO)C(=O)N[C@@H](CC(C)C)C(=O)N[C@H](C(=O)N[C@H](C(=O)N[C@@H](CC(C)C)C(=O)N[C@@H](CC(C)C)C(=O)N[C@@H](CCCNC(=N)N)C(=O)N[C@@H](C)C(=O)N[C@@H](CC(C)C)C(=O)NCC(=O)O)[C@@H](C)O)[C@@H](C)O [ML1-C3] (H-LQRHVKKRVKGLKSLTTLLRALG-OH; N-terminus and C-terminus assumed)
5 |  |  | 1.01E+03 | 7.94E−03 |  | CC(C)C[C@H](NC(=O)CNC(=O)[C@H](CO)NC(=O)[C@@H](NC(=O)[C@H](C)NC(=O)[C@H](CCCCN)NC(=O)[C@H](CC(C)C)NC(=O)[C@@H](NC(=O)[C@H](Cc1c[nH]cn1)NC(=O)[C@H](CC(C)C)NC(=O)[C@H](CCC(N)=O)NC(=O)[C@@H](N)CC(C)C)C(C)C)C(C)C)C(=O)N[C@@H](CC(C)C)C(=O)N[C@H](C(=O)N[C@@H](Cc1c[nH]cn1)C(=O)N[C@H](C(=O)N[C@H](C(=O)N[C@@H](CC(C)C)C(=O)N[C@@H](CC(C)C)C(=O)N[C@@H](CCCCN)C(=O)N[C@@H](C)C(=O)N[C@@H](CC(C)C)C(=O)NCC(=O)O)[C@@H](C)O)[C@@H](C)O)[C@@H](C)O [ML1-H1] (H-LQLHVLKAVSGLLTHTTLLKALG-OH; N-terminus and C-terminus assumed)
6 |  |  | 3434.3 | 1.05E−03 |  | CC[C@H](C)[C@H](NC(=O)[C@H](CCSC)NC(=O)[C@@H](NC(=O)[C@H](CC(C)C)NC(=O)[C@@H](NC(=O)[C@H](CC(C)C)NC(=O)[C@H](CC(C)C)NC(=O)CNC(=O)[C@H](CO)NC(=O)[C@@H](NC(=O)[C@H](C)NC(=O)[C@H](CCCCN)NC(=O)[C@H](CC(C)C)NC(=O)[C@@H](NC(=O)[C@H](Cc1c[nH]cn1)NC(=O)[C@H](CC(C)C)NC(=O)[C@H](CCC(N)=O)NC(=O)[C@@H](N)CC(C)C)C(C)C)C(C)C)[C@@H](C)O)[C@@H](C)O)C(=O)N[C@@H](CCCNC(=N)N)C(=O)N[C@@H](CCCNC(=N)N)C(=O)N[C@@H](C)C(=O)N[C@@H](CC(C)C)C(=O)NCC(=O)O [ML1-H2] (H-LQLHVLKAVSGLLTLTMIRRALG-OH; N-terminus and C-terminus assumed)
7 |  |  | 4157.6 | 4.77E−03 |  | CC[C@H](C)[C@H](NC(=O)[C@H](CCSC)NC(=O)[C@H](C)NC(=O)[C@H](CC(C)C)NC(=O)[C@@H](NC(=O)[C@H](CCCNC(=N)N)NC(=O)[C@H](CC(C)C)NC(=O)CNC(=O)[C@H](C)NC(=O)[C@@H](NC(=O)[C@H](C)NC(=O)[C@H](CCCCN)NC(=O)[C@H](CC(C)C)NC(=O)[C@@H](NC(=O)[C@H](Cc1c[nH]cn1)NC(=O)[C@H](CC(C)C)NC(=O)[C@H](CCC(N)=O)NC(=O)[C@@H](N)CC(C)C)C(C)C)C(C)C)[C@@H](C)O)C(=O)N[C@@H](CCCNC(=N)N)C(=O)N[C@@H](CCCNC(=N)N)C(=O)N[C@@H](C)C(=O)N[C@@H](CC(C)C)C(=O)N[C@@H](C)C(=O)O [ML1-H3] (H-LQLHVLKAVAGLRTLAMIRRALA-OH; N-terminus and C-terminus assumed)
8 | 1.311 × 10^3 | 8.5 × 10^−3 | 1310.8 | 8.47E−03 | 6.46 µM | CC(C)C[C@H](NC(=O)CNC(=O)[C@H](CO)NC(=O)[C@@H](NC(=O)[C@H](C)NC(=O)[C@H](CCCCN)NC(=O)[C@H](CC(=O)O)NC(=O)[C@@H](NC(=O)[C@H](Cc1c[nH]cn1)NC(=O)[C@H](CC(C)C)NC(=O)[C@H](CCC(N)=O)NC(=O)[C@@H](N)CC(C)C)C(C)C)C(C)C)C(=O)N[C@@H](CCCNC(=N)N)C(=O)N[C@@H](CO)C(=O)N[C@@H](CC(C)C)C(=O)N[C@H](C(=O)N[C@H](C(=O)N[C@@H](CC(C)C)C(=O)N[C@@H](CC(C)C)C(=O)N[C@@H](CCCNC(=N)N)C(=O)N[C@@H](C)C(=O)N[C@@H](CC(C)C)C(=O)NCC(=O)O)[C@@H](C)O)[C@@H](C)O [ML1] (H-LQLHVDKAVSGLRSLTTLLRALG-OH; N-terminus and C-terminus assumed)
9 | 3.1 × 10^2 | 4.1 × 10^−3 |  |  |  | CC(C)C[C@H](NC(=O)[C@H](CCC(=O)O)NC(=O)[C@H](CCCNC(=N)N)NC(=O)[C@H](CC(C)C)NC(=O)[C@H](CC(C)C)NC(=O)[C@H](CCCCN)NC(=O)[C@@H](NC(=O)[C@H](CC(C)C)NC(=O)[C@H](CO)NC(=O)[C@H](CCCNC(=N)N)NC(=O)[C@H](CC(C)C)NC(=O)CNC(=O)[C@H](CO)NC(=O)[C@H](CCC(=O)O)NC(=O)[C@H](C)NC(=O)[C@H](CCCCN)NC(=O)[C@H](CCC(N)=O)NC(=O)[C@@H](NC(=O)[C@H](Cc1c[nH]cn1)NC(=O)[C@@H](N)CCCNC(=N)N)C(C)C)[C@@H](C)O)C(=O)O [ML2-1] (H-RHVQKAESGLRSLTKLLREL-OH; N-terminus and C-terminus assumed)
10 |  | 4.4 × 10^−3 |  |  |  | CC(C)C[C@H](NC(=O)[C@H](C)NC(=O)[C@H](CCCNC(=N)N)NC(=O)[C@H](CC(C)C)NC(=O)[C@H](CC(C)C)NC(=O)[C@@H](NC(=O)[C@@H](NC(=O)[C@H](CC(C)C)NC(=O)[C@H](CO)NC(=O)[C@H](CCCNC(=N)N)NC(=O)[C@H](CC(C)C)NC(=O)CNC(=O)[C@H](CO)NC(=O)[C@@H](NC(=O)[C@H](C)NC(=O)[C@H](CCCCN)NC(=O)[C@H](CC(=O)O)NC(=O)[C@@H](NC(=O)[C@H](Cc1c[nH]cn1)NC(=O)[C@@H](N)CC(C)C)C(C)C)C(C)C)[C@@H](C)O)[C@@H](C)O)C(=O)O [ML2] (H-LHVDKAVSGLRSLTTLLRAL-OH; N-terminus and C-terminus assumed)
11 | 3.08 × 10^3 | 1.3 × 10^−2 |  |  |  | CC(C)[C@H](NC(=O)[C@H](CCCNC(=N)N)NC(=O)[C@@H](N)[C@@H](C)O)C(=O)N[C@@H](CC(N)=O)C(=O)N[C@@H](Cc1ccc(O)cc1)C(=O)N[C@@H](CCC(N)=O)C(=O)N[C@@H](C)C(=O)N[C@@H](Cc1c[nH]c2ccccc12)C(=O)N[C@@H](CCCCN)C(=O)N[C@@H](CCCNC(=N)N)C(=O)O [ML3-1] (H-TRVNYQAWKR-OH; N-terminus and C-terminus assumed)

Source: patent publication US10808018B2, “Erythropoietin-derived peptides and methods of protecting cells from oxidative damage induced by reactive oxygen species” (SYLUS CO., LTD., priority 2017, dated 2020)
